Usually Cmax stands for the highest concentration seen after dosing.

For ten molecules, Cmax and AUC0-t results are on record in patent US20240308984A1, “Jak Inhibitor With High Oral Bioavailability” (TECHNODERMA MEDICINES INC, priority 2021, published 2024).

This data set in a line: Oral PK in rats, single oral dose, plasma concentration by LC-MS/MS. It is filed as in vivo, Sprague Dawley (SD) rats. Conditions: SD rats, single oral gavage 5 mg/kg, n=3; for Cmax: 1 mg/mL solution in DMA:30% Solutol HS 15:Saline 10:10:80, plasma; for AUC0-t: sampling up to 24 hours, plasma. The protocol:
Biological Description of Oral PK in Rats:
In brief, the compounds were prepared in a solvent [DMA: 30% Solutol HS 15: Saline=10:10:80 (v/v/v)] to form clear solution formulations having a concentration of 1 mg/mL. Each test compound was administered to 3 rats (n=3) in single oral gavage (5 mg/kg). Approximately 150 μL of whole blood was taken from a subclavian vein of each experimental rat before administration and at 0.25, 0.5, 1, 2, 4, 8, 12, and 24 hours after administration, respectively, and was collected into an Eppendorf tube containing EDTA-K2, then 100 μL of the whole blood was added to an Eppendorf tube containing 300 μL of cyanomethane (ACN), mixed and then centrifuged to separate the plasma, and after it was ensured that there was no hemolysis in the samples, the plasma samples were stored in a freezer at −90° C. to −60° C. for analyses of drug concentrations in the samples via LC-MS/MS.
Concentrations of compounds in the plasma samples were tested and analyzed via LC-MS/MS system (API4000: LC-MS-MS-001), 10 μL of the sample was mixed with 100 μL of ACN containing a standard, then 110 μL of water was added and the mixture was oscillated, and finally, 2 μL of the mixed solution was injected into the LC-MS/MS system.

The mark [1] stands for this setting: Sprague-Dawley, rat, read-out: Cmax.
The mark [2] stands for this setting: Sprague-Dawley, rat, read-out: AUC0-t.

Like-named read-outs stand apart in the source and are kept apart here.

Molecule `CCNC(=O)c1ccc(Nc2nccc(-c3ccc(NC(=O)[C@@H]4CC4(F)F)cc3)n2)cc1C` [Comparative Example 4] came in with a Cmax of 5.02 ng/mL and an AUC0-t of 30.7 ng·h/mL. Consider `Cn1cc(Nc2nccc(-c3ccc(NC(=O)[C@@H]4CC4(F)F)nc3)n2)cn1` [Comparative Example 1, (S)-2,2-difluoro-N-(5-(2-((1-methyl-1H-pyrazol-4-yl)amino)pyrimidin-4-yl)pyridin-2-yl)cycloprop-ane-1-carboxamide], for which the Cmax under setting [1] was 116 ng/mL. Besides, the AUC0-t under setting [2] came to 891 ng·h/mL. For `Cn1cc(Nc2nccc(-c3ccc(N(COC(=O)C(C)(C)C)S(=O)(=O)Cc4cccc(F)c4)cc3)n2)cn1` [Example 3], in that order: 1860 ng/mL and 2890 ng·h/mL. Take `Cn1cc(Nc2nccc(-c3ccc(NS(=O)(=O)Cc4cccc(F)c4)cc3)n2)cn1` [Comparative Example 3]: the AUC0-t came out at 381 ng·h/mL.

With `Cn1cc(Nc2nccc(-c3ccc(N(COC(=O)C(C)(C)C)S(=O)(=O)Cc4cccc(C#N)c4)cc3)n2)cn1` [Example 2, (41-(3-cyanophenyl)-N-(4-(2-(((1-methyl-1H-pyrazol-4-yl)amino)pyrimidin-4-yl)phenyl)methyl)sulfonamido)methyl pivalate], the Cmax under setting [1] was 791 ng/mL. The AUC0-t under setting [2] came to 1580 ng·h/mL. `Cn1cc(Nc2nccc(-c3ccc(N(COC(=O)C(C)(C)C)C(=O)[C@@H]4CC4(F)F)nc3)n2)cn1` [Example 1, (S)-(2,2-difluoro-N-(5-(2-(((1-methyl-1H-pyrazol-4-yl)amino)pyrimidin-4-yl)pyridin-2-yl)cyclopropane-1-carboxamido)methyl pivalate]: the AUC0-t was found to be 1670 ng·h/mL. In the case of `CCNC(=O)c1ccc(Nc2nccc(-c3ccc(N(COC(=O)C(C)(C)C)C(=O)C4CC4(F)F)cc3)n2)cc1C` (stereo not drawn) [Example 4], the Cmax under setting [1] is 635 ng/mL. For the same molecule, the AUC0-t under setting [2] amounted to 3090 ng·h/mL. With `Cn1cc(Nc2nccc(-c3ccc(NS(=O)(=O)Cc4cccc(C#N)c4)cc3)n2)cn1` [Comparative Example 2], the Cmax came to 20.2 ng/mL and the AUC0-t is 47.4 ng·h/mL. For `CCNC(=O)c1ccc(Nc2nccc(-c3ccc(NC(=O)[C@@H]4CC4(F)F)cc3)n2)cc1` [Comparative Example 5], in that order: 16.5 ng/mL and 141 ng·h/mL. Regarding `CCNC(=O)c1ccc(Nc2nccc(-c3ccc(N(COC(=O)C(C)(C)C)C(=O)C4CC4(F)F)cc3)n2)cc1` (stereo not drawn) [Example 5], the Cmax under setting [1] stood at 689 ng/mL. Moreover, under setting [2], the AUC0-t amounted to 2710 ng·h/mL.
